# Experimental data published in US12617783B2, “Heterocyclic GLP-1R agonists” (BIOMEA FUSION, INC., priority 2024, dated 2026).
# Target: T1, human GLP-1R (Homo sapiens, UniProt P43220)
# T1 construct: host or cells: HEK293
# Assay: GLP-1R cAMP assay (Example B1a, HTRF, 30 min at room temperature)
# Format: cell-based
# Details: cAMP accumulation in HEK293 expressing human GLP-1R, no BETP, 30 min room temperature (Method B1a, compounds ID 1-609), Table 1; read-out: EC50
# Outline: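 Competitive HTRF read-out of cAMP after 30 min room-temperature stimulation, BETP absent, of human GLP-1R-HEK293 cells (1,000/well) in HEPES buffer with 500 μM IBMX and 0.1% BSA. Activation normalised to GLP-1(7-37) positive control. EC50 from 4-parameter non-linear regression.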
# T1 sequence (P43220 24-463): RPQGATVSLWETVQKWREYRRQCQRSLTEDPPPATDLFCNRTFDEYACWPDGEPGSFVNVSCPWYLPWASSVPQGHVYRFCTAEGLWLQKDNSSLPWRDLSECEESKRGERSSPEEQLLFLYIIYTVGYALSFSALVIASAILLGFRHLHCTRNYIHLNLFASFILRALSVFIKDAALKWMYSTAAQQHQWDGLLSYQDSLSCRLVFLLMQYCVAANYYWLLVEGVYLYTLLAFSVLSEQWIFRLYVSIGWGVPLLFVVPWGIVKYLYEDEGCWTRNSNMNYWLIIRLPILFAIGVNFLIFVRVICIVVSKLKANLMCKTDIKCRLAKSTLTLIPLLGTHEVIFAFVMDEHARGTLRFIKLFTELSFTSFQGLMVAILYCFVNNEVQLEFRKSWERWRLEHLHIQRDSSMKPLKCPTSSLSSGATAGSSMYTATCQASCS
row,SMILES,EC50 [µM]
1,"Cc1cc(-n2nc3c(c2-n2ccn(-c4ccc5c(cnn5C)c4F)c2=O)[C@@H]2CC[C@H](C3)N2C(=O)c2cc3cc([C@@H]4CCOC(C)(C)C4)ncc3n2[C@@]2(c3noc(=O)[nH]3)C[C@@H]2C)cc(C)c1F [Compound 212, 3-((1S,2S)-1-(5-((R)-2,2-dimethyltetrahydro-2H-pyran-4-yl)-2-((4S,7R)-3-(3-(4-fluoro-1-methyl-1H-indazol-5-yl)-2-oxo-2,3-dihydro-1H-imidazol-1-yl)-2-(4-fluoro-3,5-dimethylphenyl)-2,4,5,6,7,8-hexahydro-4,7-epiminocyclohepta [c]pyrazole-9-carbonyl)-1H-pyrrolo[2,3-c]pyridin-1-yl)-2-methylcyclopropyl)-1,2,4-oxadiazol-5 (4H)-one]",0.697
2,"Cc1cc(-n2nc3c(c2-n2ccn(-c4ccc5c(cnn5C)c4F)c2=O)[C@@H]2CC[C@H](C3)N2C(=O)c2cc3cc(C4CCOC5(CC5)C4)ccc3n2[C@@]2(c3noc(=O)[nH]3)C[C@@H]2C)cc(C)c1F (stereo partly drawn) [Compound 213, 3-((1S,2S)-1-(2-((4S,7R)-3-(3-(4-fluoro-1-methyl-1H-indazol-5-yl)-2-oxo-2,3-dihydro-1H-imidazol-1-yl)-2-(4-fluoro-3,5-dimethylphenyl)-2,4,5,6,7,8-hexahydro-4,7-epiminocyclohepta [c]pyrazole-9-carbonyl)-5-(4-oxaspiro[2.5]octan-7-yl)-1H-indol-1-yl)-2-methylcyclopropyl)-1,2,4-oxadiazol-5 (4H)-one]",0.0812
3,"Cc1cc(-n2nc3c(c2-n2ccn(-c4ccc5c(cnn5C)c4F)c2=O)[C@@H]2CC[C@H](C3)N2C(=O)c2cc3cc([C@@H]4CCOC5(CC5)C4)ccc3n2[C@@]2(c3noc(=O)[nH]3)C[C@@H]2C)cc(C)c1F [Compound 215, 3-((1S,2S)-1-(2-((4S,7R)-3-(3-(4-fluoro-1-methyl-1H-indazol-5-yl)-2-oxo-2,3-dihydro-1H-imidazol-1-yl)-2-(4-fluoro-3,5-dimethylphenyl)-2,4,5,6,7,8-hexahydro-4,7-epiminocyclohepta [c]pyrazole-9-carbonyl)-5-((R)-4-oxaspiro[2.5]octan-7-yl)-1H-indol-1-yl)-2-methylcyclopropyl)-1,2,4-oxadiazol-5 (4H)-one]",4.13
4,"CCP(=O)(CC)c1ccc(-n2ccn(-c3c4c(nn3-c3cc(C)c(F)c(C)c3)C[C@H]3CC[C@@H]4N3C(=O)c3cc4cc(C5CCOCC5)ccc4n3[C@@]3(c4noc(=O)[nH]4)C[C@@H]3C)c2=O)cc1NC [Compound 216, 3-[(1S,2S)-1-[2-[(1S,8R)-3-[3-[4-diethylphosphoryl-3-(methylamino)phenyl]-2-oxo-imidazol-1-yl]-4-(4-fluoro-3,5-dimethyl-phenyl)-4,5,11-triazatricyclo[6.2.1.02,6]undeca-2,5-diene-11-carbonyl]-5-tetrahydropyran-4-yl-indol-1-yl]-2-methyl-cyclopropyl]-4H-1,2,4-oxadiazol-5-one]",0.233
5,"Cc1cc(-n2nc3c(c2-n2ccn(-c4ccc5c(cnn5C)c4F)c2=O)[C@@H]2CC[C@H](C3)N2C(=O)c2cc3nc([C@H]4CCOC(C)(C)C4)ccc3n2[C@@]2(c3noc(=O)[nH]3)C[C@@H]2C)cc(C)c1F [Compound 217, 3-[(1S,2S)-1-[5-[(4S)-2,2-dimethyltetrahydropyran-4-yl]-2-[(1S,8R)-4-(4-fluoro-3,5-dimethyl-phenyl)-3-[3-(4-fluoro-1-methyl-indazol-5-yl)-2-oxo-imidazol-1-yl]-4,5,11-triazatricyclo[6.2.1.02,6]undeca-2,5-diene-11-carbonyl]pyrrolo[3,2-b]pyridin-1-yl]-2-methyl-cyclopropyl]-4H-1,2,4-oxadiazol-5-one]",0.907
6,"Cc1cc(-n2nc3c(c2-n2ccn(-c4ccc5c(cnn5C)c4F)c2=O)[C@@H]2CC[C@H](C3)N2C(=O)c2cc3nc([C@@H]4CCOC(C)(C)C4)ccc3n2[C@@]2(c3noc(=O)[nH]3)C[C@@H]2C)cc(C)c1F [Compound 218, 3-[(1S,2S)-1-[5-[(4R)-2,2-dimethyltetrahydropyran-4-yl]-2-[(1S,8R)-4-(4-fluoro-3,5-dimethyl-phenyl)-3-[3-(4-fluoro-1-methyl-indazol-5-yl)-2-oxo-imidazol-1-yl]-4,5,11-triazatricyclo[6.2.1.02,6]undeca-2,5-diene-11-carbonyl]pyrrolo[3,2-b]pyridin-1-yl]-2-methyl-cyclopropyl]-4H-1,2,4-oxadiazol-5-one]",> 10

# Next, values leading:
row,EC50 [µM],SMILES
1,0.269,"CCc1nccc(-c2ccc3c(c2)cc(C(=O)N2[C@@H]4CC[C@H]2c2c(nn(-c5cc(C)c(F)c(C)c5)c2-n2ccn(-c5ccc6c(cnn6C)c5F)c2=O)C4)n3[C@@]2(c3noc(=O)[nH]3)C[C@@H]2C)c1C [Compound 219, 3-[(1S,2S)-1-[5-(2-ethyl-3-methyl-4-pyridyl)-2-[(1S,8R)-4-(4-fluoro-3,5-dimethyl-phenyl)-3-[3-(4-fluoro-1-methyl-indazol-5-yl)-2-oxo-imidazol-1-yl]-4,5,11-triazatricyclo[6.2.1.02,6]undeca-2,5-diene-11-carbonyl]indol-1-yl]-2-methyl-cyclopropyl]-4H-1,2,4-oxadiazol-5-one]"
2,0.795,"Cc1cc(-n2nc3c(c2-n2ccn(-c4ccc5c(cnn5C)c4F)c2=O)[C@@H]2COC[C@H](C3)N2C(=O)c2cc3cc(C4CCOC5(CC5)C4)ccc3n2[C@@]2(c3noc(=O)[nH]3)C[C@@H]2C)cc(C)c1F (stereo partly drawn) [Compound 220, 3-((1S,2S)-1-(2-((4R,8S)-3-(3-(4-fluoro-1-methyl-1H-indazol-5-yl)-2-oxo-2,3-dihydro-1H-imidazol-1-yl)-2-(4-fluoro-3,5-dimethylphenyl)-2,4,5,7,8,9-hexahydro-4,8-epiminooxocino [5,4-c]pyrazole-10-carbonyl)-5-(4-oxaspiro[2.5]octan-7-yl)-1H-indol-1-yl)-2-methylcyclopropyl)-1,2,4-oxadiazol-5 (4H)-one]"
3,0.129,"Cc1cc(-n2nc3c(c2-n2ccn(-c4ccc5c(cnn5C)c4F)c2=O)[C@@H]2COC[C@H](C3)N2C(=O)c2cc3cc(C4CCOCC4)ccc3n2[C@@]2(c3noc(=O)[nH]3)C[C@@H]2C)cc(C)c1F [Compound 221, 3-((1S,2S)-1-(2-((4R,8S)-3-(3-(4-fluoro-1-methyl-1H-indazol-5-yl)-2-oxo-2,3-dihydro-1H-imidazol-1-yl)-2-(4-fluoro-3,5-dimethylphenyl)-2,4,5,7,8,9-hexahydro-4,8-epiminooxocino [5,4-c]pyrazole-10-carbonyl)-5-(tetrahydro-2H-pyran-4-yl)-1H-indol-1-yl)-2-methylcyclopropyl)-1,2,4-oxadiazol-5 (4H)-one]"
4,0.177,"Cc1cc(-n2nc3c(c2-n2ccn(-c4ccc5c(cnn5C)c4Cl)c2=O)[C@@H]2COC[C@H](C3)N2C(=O)c2cc3cc([C@H]4CCOC(C)(C)C4)ccc3n2[C@@]2(c3noc(=O)[nH]3)C[C@@H]2C)cc(C)c1F [Compound 222, 3-((1S,2S)-1-(2-((4R,8S)-3-(3-(4-chloro-1-methyl-1H-indazol-5-yl)-2-oxo-2,3-dihydro-1H-imidazol-1-yl)-2-(4-fluoro-3,5-dimethylphenyl)-2,4,5,7,8,9-hexahydro-4,8-epiminooxocino [5,4-c]pyrazole-10-carbonyl)-5-((S)-2,2-dimethyltetrahydro-2H-pyran-4-yl)-1H-indol-1-yl)-2-methylcyclopropyl)-1,2,4-oxadiazol-5(4H)-one]"
